# According to publication PMC11404609, “Gut microbiota-mediated C-sulfonate metabolism impairs the bioavailability and anti-cholestatic efficacy of andrographolide” (Gut Microbes, 2024):
# “Also recorded” adds a separate entry of the source.
# Assays:
# [1] = test system: ANIT-induced cholestatic liver injury; assay: Anti-cholestatic effect in ANIT-induced cholestatic liver injury (plasma ALT, AST, TBA, TBIL, liver H&E); type: in vivo, mice; conditions: for anti-cholestatic effect: AP 200 mg/kg
# Description: To investigate the impact of gut microbiota on the anti-cholestatic effect of AP, Control and ABX mice were divided into five groups, respectively: Vehicle, AP (200 mg/kg), ANIT (50 mg/kg), ANIT+AP (200 mg/kg), and ANIT+S-AMe (100 mg/kg).
# Similarly, to investigate the impact of C-sulfonate metabolism on the anti-cholestatic effect of AP, mice were randomly divided into two groups: p.o. group (oral administration) and i.p. group (intraperitoneal injection). The p.o. group was further divided into six subgroups: Vehicle, AP (400 mg/kg), ANIT (50 mg/kg), ANIT+AP (100 mg/kg), ANIT+AP (200 mg/kg), ANIT+AP (400 mg/kg). While the i.p. group was divided into five subgroups: Vehicle, AP (200 mg/kg), ANIT (50 mg/kg), ANIT+AP (100 mg/kg), ANIT+AP (200 mg/kg).
# Additionally, to investigate the effect of APS reductase inhibitor on the anti-cholestatic effect of AP, mice were randomly divided into Control and Inhibitor groups, each further divided into five subgroups: Vehicle, AP (200 mg/kg), ANIT (50 mg/kg), ANIT+AP (200 mg/kg), and ANIT+S-AMe (100 mg/kg). The mice received APS reductase inhibitor bromocriptine mesylate by oral gavage (20 mg/kg, p.o.) 2 weeks before AP treatment and continued until the end of the experiment. Furthermore, to investigate the important role of FXR in the anti-cholestatic effect of AP, WT and Fxr^-/- mice were, respectively, divided into the following groups: Vehicle, ANIT (50 mg/kg), and ANIT+AP (200 mg/kg).
# In pharmacodynamic experiments, mice were administered AP at various dosages through different routes daily for a duration of 2 weeks. Additionally, S-AMe was administered at a dosage of 100 mg/kg via intraperitoneal injection (i.p.) daily for 2 weeks. A single dose of ANIT (50 mg/kg, p.o.) was administered 48 h before euthanizing the mice. At the conclusion of each experiment, the mice were euthanized, and blood samples were collected for biochemical analysis and tissue samples for histological examination and UPLC-MS/MS analysis.
# Biochemical indicators of cholestatic liver injury, including alanine aminotransferase (ALT), aspartate aminotransferase (AST), total bile acid (TBA), and total bilirubin (TBIL), were assessed using assay kits obtained from Nanjing JianCheng Bioengineering Institute (Nanjing, China). The experimental procedures were conducted in accordance with the protocols provided by the manufacturer. Fresh liver tissues were fixed in 10% formalin, and prepared as 4-μm paraffin sections. These sections were stained with hematoxylin and eosin for examination of liver histopathology. The stained tissue sections were then observed and captured under an optical microscope for further analysis. Liver histological changes were quantified using a slightly modified scoring system published previously.[45] The scoring system comprised four histological features that were evaluated semi-quantitatively: necrosis and fibrosis (0–4), steatosis (0–3), lobular inflammation (0–2), and hepatocellular ballooning (0–2). The liver necrosis and fibrosis areas were quantified by area fraction analysis (Image J software, V1.8.0, National Institutes of Health, USA).[46]
# [2] = test system: FXR; assay: FXR expression in liver (RNA sequencing, qPCR, Western blot); type: in vivo, mice
# Description: RNA in liver tissue was isolated from mice treated with ANIT and ANIT+AP (200 mg/kg, i.p.) and purified by TRIzol (Invitrogen, CA). The isolated RNA was quantified using Qubit 2.0 (Thermo Fisher Scientific, USA) following the manufacturer’s protocol. Libraries were prepared using the NEBNext® UltraTM RNA Library Prep Kit for Illumina® (NEB, USA) and sequenced on a Novaseq 6000 (Illumina, USA) at Novogene’s deep sequencing facility. Mapped reads from each sample were assembled using StringTie (v1.3.3b) in a reference-based approach, and featureCounts was used to quantify mapped reads. Differential expression analysis of two conditions/groups was performed using the DESeq2 R package (1.20.0).
# Total RNA from frozen livers of Vehicle, AP (200 mg/kg, i.p.), ANIT (50 mg/kg), and ANIT+AP (200 mg/kg, i.p.) groups was extracted using the Animal Total RNA Isolation Kit (FOREGENE, China). cDNA was synthesized using a Color Reverse Transcription Kit (EZBioscience, Roseville, CA, USA). qPCR was performed using SYBR green/Rox qPCR master mix (EZBioscience, Roseville, CA, USA), according to the manufacturer’s instruction. The expression of target genes was normalized to β-actin, and fold changes were calculated using 2^–ΔΔCT method. For bacterial identification, genomic DNA of fecal flora was isolated using the TIANamp Stool DNA Kit (TIANGEN, Beijing, China) and qPCR was performed. […]
structure (smiles),measurement,setting,value
"C=C1CC[C@@H]2[C@](C)(CO)[C@H](O)CC[C@@]2(C)[C@@H]1C/C=C1/C(=O)OC[C@H]1O [AP, Andrographolide]","effect on ANIT-induced elevation of plasma biochemical indicators, liver cell necrosis, inflammatory cell infiltration","[1]; ABX mice (intestinal flora depleted), AP 200 mg/kg p.o., 2 weeks",markedly ameliorated
same,protective effect against ANIT-induced liver injury,"[1]; Control mice with intact intestinal flora, AP 200 mg/kg p.o., 2 weeks",weak protective effect
same,anti-cholestatic effect,[1]; Fxr^-/- mice,completely abolished; also recorded: no protective effect
same,anti-cholestatic effect,[1]; WT mice,superior anti-cholestatic effect; also recorded: significant effects
same,alleviation of ANIT-induced cholestatic liver injury,"[1]; mice, AP 200 mg/kg p.o. alone (inhibitor study)",did not exhibit significant alleviation
same,alleviation of ANIT-induced cholestatic liver injury,"[1]; mice, AP 200 mg/kg p.o. in combination with APS reductase inhibitor bromocriptine mesylate 20 mg/kg p.o.",notable amelioration of liver injury
same,anti-cholestatic effect vs ANIT group,"[1]; mice, intraperitoneal AP 100 mg/kg or 200 mg/kg",superior anti-cholestatic effect
same,hepatoprotective effect vs ANIT group,"[1]; mice, oral AP 400 mg/kg",significant efficacy
same,expression of Fxr (Nr1h4) by RNA-sequencing,"[2]; ANIT+AP (200 mg/kg, i.p.) vs ANIT",significant upregulation
same,FXR expression by qPCR and Western blot,"[2]; after AP treatment (200 mg/kg, i.p.)",upregulation of FXR expression
